According to patent US20140179681A1, “METHODS AND COMPOSITIONS OF TARGETED DRUG DEVELOPMENT” (priority 2010, published 2014):

Tests used:
EGF binding site = target: T1, EGF binding site (Rattus norvegicus, UniProt G3V6K6); assay: Inhibition of [125I]EGF binding (EGF inhibitor assay, NovaScreen); details: determined at 25 μM; rat liver membranes; result in words
T1 construct: Receptor source was rat liver membranes; tissue NovaScreen BioSciences; host or cells: rat liver membranes
Method: Identified compounds, representing various pharmacophore models, were tested for ability to inhibit EGFR at 25 μM.
AD4-compounds were identified using pharmacophore models (see Example 3, Example 4) and then were docked with the binding site of EGFR (SEQ ID NO: 1) that is recognized by defined CDRs of cetuximab. The inhibition of epidermal growth factor binding by AD4-compounds was then determined (NovaScreen BioSciences, Hanover, Md.). Inhibition of EGF binding was determined at 25 μM concentration.
Receptor source was rat liver membranes. The radioligand was [^125I]EGF ([…]) at a final ligand concentration of 0.36 nM. A non-specific determinant was used as EGF—[100 nM]. The reference compound and positive control was EGF. Reactions were carried out in 10 mM HEPES (pH 7.4) containing 0.1% BSA at 25° C. for 60 minutes. The reaction was terminated by rapid vacuum filtration onto glass fiber filters. Radioactivity trapped onto the filters was determined and compared to control values to ascertain any interactions of test compounds with the EGF binding site. The EGF inhibitor assays were modified from, for example, Mukku (1984) J. Biol. Chem. 259, 6543-6546; Duh et al. (1990) World J. Surgery 14, 410-418; Lokeshwar et al. (1989) J. Biol. Chem. 264(32), 19318-19326.

EGFR = target: T2, EGFR (Homo sapiens, UniProt P00533); assay: EGFR in-cell Western (ICW) screening protocol (EGFR inhibition assay); type: cell-based; details: % Inhibition of EGF dependent EGFR phosphorylation in A431 cells, compound 125 μM in assay
T2 construct: host or cells: A431
Procedure, shortened: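 Serum-starved A431 cells (2 h) were pretreated with compound for 4 h at 37° C, then stimulated with EGF (10 ng/ml final, or 6.6 or 12.5 ng/ml in some runs) for 10 min. After formaldehyde fixation, phospho-EGFR (Tyr1173, or Tyr1045 in some runs) and total EGFR were detected by in-cell Western immunostaining.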

T1 sequence (G3V6K6 25-1209): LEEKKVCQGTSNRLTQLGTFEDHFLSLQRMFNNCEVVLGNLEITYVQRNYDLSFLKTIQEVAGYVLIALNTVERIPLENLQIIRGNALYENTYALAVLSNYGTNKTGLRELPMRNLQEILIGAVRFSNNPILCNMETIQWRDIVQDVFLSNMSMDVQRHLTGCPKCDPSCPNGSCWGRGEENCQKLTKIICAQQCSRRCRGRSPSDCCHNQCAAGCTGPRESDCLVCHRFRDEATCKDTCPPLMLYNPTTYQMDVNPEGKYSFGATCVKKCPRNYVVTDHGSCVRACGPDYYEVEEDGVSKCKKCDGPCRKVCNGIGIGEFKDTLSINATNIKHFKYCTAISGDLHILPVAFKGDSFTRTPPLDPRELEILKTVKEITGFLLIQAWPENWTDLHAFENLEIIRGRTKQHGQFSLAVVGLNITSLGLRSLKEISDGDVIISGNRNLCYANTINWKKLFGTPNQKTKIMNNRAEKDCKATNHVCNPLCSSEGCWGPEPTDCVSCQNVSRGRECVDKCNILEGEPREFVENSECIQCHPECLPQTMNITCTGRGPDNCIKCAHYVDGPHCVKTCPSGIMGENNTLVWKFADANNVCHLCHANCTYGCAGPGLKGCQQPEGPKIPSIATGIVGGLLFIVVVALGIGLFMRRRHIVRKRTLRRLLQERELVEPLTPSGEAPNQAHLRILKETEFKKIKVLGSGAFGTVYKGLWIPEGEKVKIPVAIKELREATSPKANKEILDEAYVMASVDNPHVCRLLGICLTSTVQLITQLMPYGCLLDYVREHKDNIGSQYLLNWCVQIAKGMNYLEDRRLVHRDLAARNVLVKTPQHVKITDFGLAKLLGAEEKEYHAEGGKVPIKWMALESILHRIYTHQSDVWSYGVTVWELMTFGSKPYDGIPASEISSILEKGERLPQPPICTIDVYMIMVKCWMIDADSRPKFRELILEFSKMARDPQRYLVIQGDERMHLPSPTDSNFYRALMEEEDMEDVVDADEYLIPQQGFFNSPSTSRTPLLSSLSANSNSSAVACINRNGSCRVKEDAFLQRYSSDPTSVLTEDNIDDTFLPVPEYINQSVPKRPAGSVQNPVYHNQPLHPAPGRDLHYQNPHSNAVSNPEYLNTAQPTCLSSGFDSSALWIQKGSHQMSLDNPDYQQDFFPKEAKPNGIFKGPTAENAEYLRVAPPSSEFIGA
T2 sequence (P00533 25-1210): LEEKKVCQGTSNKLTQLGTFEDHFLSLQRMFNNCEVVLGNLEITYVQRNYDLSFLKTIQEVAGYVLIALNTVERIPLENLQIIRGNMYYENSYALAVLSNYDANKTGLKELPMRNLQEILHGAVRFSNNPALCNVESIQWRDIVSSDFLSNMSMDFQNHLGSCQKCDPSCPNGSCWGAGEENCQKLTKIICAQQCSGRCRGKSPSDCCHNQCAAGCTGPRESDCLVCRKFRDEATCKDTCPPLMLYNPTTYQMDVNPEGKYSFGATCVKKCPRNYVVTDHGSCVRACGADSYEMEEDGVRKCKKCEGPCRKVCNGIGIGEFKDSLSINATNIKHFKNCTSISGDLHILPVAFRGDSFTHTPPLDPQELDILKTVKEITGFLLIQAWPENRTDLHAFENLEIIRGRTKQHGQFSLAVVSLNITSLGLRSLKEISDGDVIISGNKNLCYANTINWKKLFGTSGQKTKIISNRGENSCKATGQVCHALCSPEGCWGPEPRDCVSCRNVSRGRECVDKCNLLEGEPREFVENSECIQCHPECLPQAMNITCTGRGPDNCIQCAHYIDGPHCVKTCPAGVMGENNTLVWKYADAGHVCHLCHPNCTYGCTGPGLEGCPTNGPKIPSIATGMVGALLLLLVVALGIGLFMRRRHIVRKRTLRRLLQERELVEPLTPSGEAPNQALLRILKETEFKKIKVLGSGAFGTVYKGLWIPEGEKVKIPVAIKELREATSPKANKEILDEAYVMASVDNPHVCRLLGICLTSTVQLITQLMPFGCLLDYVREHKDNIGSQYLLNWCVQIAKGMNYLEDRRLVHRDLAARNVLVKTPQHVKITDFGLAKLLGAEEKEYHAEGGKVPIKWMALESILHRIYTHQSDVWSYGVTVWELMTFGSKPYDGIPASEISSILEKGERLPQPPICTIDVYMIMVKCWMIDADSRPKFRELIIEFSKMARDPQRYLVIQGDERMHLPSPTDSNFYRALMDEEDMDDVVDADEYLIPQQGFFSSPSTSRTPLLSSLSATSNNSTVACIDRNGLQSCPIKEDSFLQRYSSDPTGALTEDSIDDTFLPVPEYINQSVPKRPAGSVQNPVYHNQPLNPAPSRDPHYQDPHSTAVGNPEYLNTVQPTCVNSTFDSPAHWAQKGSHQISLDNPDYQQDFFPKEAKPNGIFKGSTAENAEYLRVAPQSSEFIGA

Compound	inhibition of epidermal growth factor binding to its receptor (EGF binding site)	ICW Screen (EGFR; Table 11)	ICW assay (EGFR; Table 10)
CCc1cc2c(CN3CCN(Cc4ccc5c(c4)OCO5)CC3)cc(=O)oc2cc1O [AD4-1734]	inhibitor of epidermal growth factor binding to its receptor	65.9	
Cc1cc(C)cc(NS(=O)(=O)c2ccc(NC(=S)Nc3ccccc3)cc2)c1 [AD4-11091]	inhibitor of epidermal growth factor binding to its receptor		112.858
